From US20130058903A1, “Stem-Cell Material and Method of Use” (priority 2009, published 2013)

How the values were obtained:
STAT3 = test: Western blot of STAT3 phosphorylation in C2C12 myocytes; format: cell-based; settings: C2C12 pretreated 2 hours, then MSC-CM for 30 min
Experimental: FIG. 8: Trophic actions of MSCs stimulate JAK/STAT3 signaling in cultured skeletal myocytes. C2C12 myocytes were plated in 6-well plates (10^5 cells per well). After overnight plating, cells were exposed to the indicated conditioned medium. A: Western blot assays of C2C12 cells exposed to MSC-CM for 5 min, 30 min, 6 hr, and 24 hr. B: In situ immunostaining of control medium- and MSC-CM-treated C2C12 cells (30 min incubation) using a p-STAT3 antibody (red) and β-actin antibody (green). Alexa647- and FITC-conjugated secondary antibodies were used. Nuclei were stained with DAPI. C: Western blot assays comparing the effects of porcine MSC-CM, a human embryonic kidney cell line (HEK293) CM, IL-6, IL-11, and LIF on STAT3 phosphorylation in C2C12 myocytes 30 min after treatment. Fifty ng/ml recombinant proteins were used. D: CT for human MSC IL-6-type cytokines. The CT for the house-keeping gene β2-microglobulin and GAPDH are ˜17 and ˜15, respectively.
FIG. 9: gp130/STAT3 signaling stimulates growth factor expression in cultured skeletal myocytes. C2C12 myocytes were treated with […] of a gp130 antibody (R&D Systems; #AF468) or control IgG for one hour at 37° C. The IgG isotype antibody was used as a negative control. Cells were then briefly rinsed and treated with MSC-CM for 30 min to assess STAT3 activation or 3 days for growth factor production. […]

JAK/STAT3 signaling = test: Extracardiac MSC therapy with WP1066 (echocardiography, ELISA); format: in vivo, hamster
Experimental: FIG. 14: WP1066 inhibits JAK/STAT3 signaling and abrogates MSC-mediated cardiac repair. […] Cells were pretreated with WP1066 at the indicated dosages for 2 hours, following which cells were stimulated with MSC-CM for 30 min. Western blot assays were performed to determine STAT3 activation. B: The extracardiac MSC therapy was carried out as described previously (54). The four treatment groups (n=5 per group) were: WP1066, drug vehicle (PEG), MSC plus WP1066, and MSC plus drug vehicle (MSC+PEG). qRT-PCR assays of myocardial ANP and BNP expression (n=4 per group) after one month were presented. ANOVA was performed to assess statistical significance. *P<0.05 vs. PEG.
FIG. 15: WP1066 blocks MSC-mediated improvement in cardiac function. Cardiac function was determined by blind-folded echocardiography after MSC administration. A: Representative M-mode recording for the four animal groups at 4 weeks. B: LVEF at 2 and 4 weeks after MSCs. ANOVA was performed to assess statistical significance. *P<0.05 vs. PEG; †P<0.05 vs. WP1066; #P<0.05 vs. pre-injection.
FIG. 16: Inhibition of JAK/STAT3 signaling abolishes MSC-induced tissue growth factor levels. Soluble fractions of total hamstring extracts (panel A) and plasma samples (panel B) were assayed using rodent-specific HGF and VEGF ELISA kits (n=4 per group). Tissue growth factor concentrations were expressed as ng per mg soluble proteins. ANOVA was performed to assess statistical significance. *P<0.05 vs. PEG; †P<0.05 vs. WP1066; #P<0.05 vs. MSC+WP1066.

C[C@H](NC(=O)/C(C#N)=C/c1cccc(Br)n1)c1ccccc1 [WP1066]
STAT3 phosphorylation (STAT3): Inhibitory effect | MSC-mediated improvement in cardiac function (LVEF) (JAK/STAT3 signaling; 2 and 4 weeks after MSCs): blocks | MSC-induced tissue growth factor levels (HGF, VEGF) (JAK/STAT3 signaling; hamstring extracts and plasma): abolishes | MSC-mediated cardiac repair (JAK/STAT3 signaling; myocardial ANP and BNP expression after one month): abrogates
